Assay: gradient 5% acetonitrile 3 min, to 50% in 2 min, to 85% in 15 min, held 3 min, 100 µL/min
Conditions: column: Zorbax Extend-C18 2.1 x 50 mm; eluents: water / acetonitrile, 0.1% formic acid
In short: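 Standards, all pure, were combined into mixtures of ~100 molecules and run at 100 μL/min on a Zorbax Extend-C18 column (2.1 × 50 mm, 1.8 μm) with water and acetonitrile, each containing 0.1% formic acid. A coupled quadrupole time-of-flight mass spectrometer operated in positive and negative ionization mode. Retention time values come from computationally picked adduct peaks, each inspected manually.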

| Structure (SMILES) | RP-LC retention time |
| --- | --- |
| CCn1cc(CCN2CCN(C(=O)C3CCCC3)CC2)c2cccnc21 | 597 s |
| CN1C(=O)c2cccnc2Sc2cc(NC(=O)c3ccc(Br)o3)ccc21 | 788 s |
| O=C(C1CCC1)N1CC(c2nc(-c3ccc(F)cc3)no2)C2(CCOCC2)C1 (configuration not stated) | 891 s |
| COc1ccc(C(=O)Nc2cccn3c(C4CCC4)nnc23)cc1F | 769 s |
| Cc1nnc2n1CCC(N(C)C(=O)c1cc(C3CC3)[nH]n1)CC2 (configuration not stated) | 530 s |
| COc1ccc(CCn2c(-c3cccs3)nc3c(c(=O)c4ccccc4n3C)c2=O)cc1 | 880 s |
| O=C(c1cccc(F)c1)N1CCN(c2ccc(=O)n(-c3ccc(Cl)cc3)n2)CC1 | 871 s |
| COc1cc(C(=O)N2CCCN(c3cc(=O)n(C)c(=O)n3C)CC2)cc(OC)c1OC | 624 s |
| O=C(NCc1ccc(F)cc1Cl)C1=C2CCCN2c2ccc(F)cc2S1(=O)=O | 933 s |
| Cc1nnc(NC(=O)CSc2nnc(-c3cccs3)o2)s1 | 654 s |
| Nc1ncnc2c1ncn2C=C=CCO | 581 s |
| Cc1cc(C)cc(S(=O)(=O)N2CCc3c(c(-c4nnc(-c5ccccc5F)o4)nn3C)C2)c1 | 998 s |
| C=CCNC(=O)NC1CCN(C2=NS(=O)(=O)C(c3ccccc3)=C2C)CC1 | 705 s |
| CC(=O)Nc1ccc(CCc2nc3ccc(C(=O)NC(C)Cc4ccco4)cc3[nH]2)cc1 (configuration not stated) | 626 s |
| CCOc1ccc(-c2nc(C3CC(=O)N(c4ccc(F)cc4)C3)no2)cc1OCC (configuration not stated) | 1050 s |
| Cc1ccc(Nc2nc(NCc3cccnc3)nc3[nH]ncc23)cc1 | 540 s |
| COc1cccc(NC(=O)c2cc(C)n3nc(C)cc3n2)c1 | 928 s |
| CCc1nc(-c2csc(S(=O)(=O)N3CCCC(C(=O)NC4CCCCCCC4)C3)c2)no1 (configuration not stated) | 1150 s |
| CCCn1c(=O)sc2cc(S(=O)(=O)N3CCC(C(=O)Nc4ccc(F)cc4)CC3)ccc21 | 979 s |
| CCN1CCC(N(Cc2cccs2)C(=O)Nc2cccc(Br)c2)CC1 | 693 s |
| Cc1cnc(CC2CCN(S(=O)(=O)c3cn(C)cn3)C2)n1Cc1ccccc1 (configuration not stated) | 590 s |
| CCN1C(=O)c2cc(C(=O)Nc3ccc(C)cc3)nn2CC1(C)C(=O)NC1CCCC1 (configuration not stated) | 807 s |

| Structure (SMILES) | RP-LC retention time |
| --- | --- |
| O=C1C(c2cccnc2)N(Cc2ccco2)C(=O)CN1c1ccccc1 (configuration not stated) | 619 s |
| CC(C)c1nccn1C1CN(C(=O)c2ccc3[nH]ccc3c2)C1 | 580 s |
| CCCCNC(=O)C1CCCN(c2nnc(C)c3c(C)n(-c4ccc(Cl)cc4)nc23)C1 (configuration not stated) | 746 s |
| COCCCNC(=O)C1(c2ccc(NC(=O)c3cccs3)cc2)CC1 | 746 s |
| CCCn1c(=O)c(C)nc2cc(-c3noc(-c4ccc(C#N)cc4)n3)ccc21 | 1080 s |
| CC(C)CCNC(=O)c1cn2ccccc2n1 | 656 s |
| Cc1nc(-c2csc(S(=O)(=O)N3CCC(C(=O)Nc4ccc(F)c(Cl)c4)CC3)c2)no1 | 1010 s |
| COc1ccc(OC)c(NC(=O)N2CCC(N3CCN(Cc4ccc(F)cc4)C(=O)C3=O)CC2)c1 | 773 s |
| COc1ccc(-c2csc(Nc3ccc(C)cc3)n2)cc1 | 1190 s |
| CCCN(C)c1nccn2c(=O)n(CC(=O)Nc3ccc(C)cc3F)nc12 | 719 s |
| COc1ccc(-c2noc(C3CC(=O)N(c4ccc5c(c4)OCO5)C3)n2)cc1 (configuration not stated) | 881 s |
| COc1cccc(-c2ccc(=O)n(Cc3nc(-c4ccc(OC)c(OC)c4)no3)n2)c1 | 887 s |
| Cc1cccc(NC(=O)C2CCN(S(=O)(=O)c3cc(C(=O)N4CCCC4)cs3)CC2)c1C | 818 s |
| COc1ccc(CNC(=O)C2CC(=O)N(c3n[nH]c4cccc(F)c34)C2)cc1OC (configuration not stated) | 661 s |
| O=C(Cn1nc2c3ccccc3ncn2c1=O)NCCc1ccc(Cl)cc1 | 707 s |
| COc1cc(NC(=O)N2C[C@@H](F)C[C@H]2C(=O)N2CCc3ccccc3C2)cc(OC)c1 | 752 s |
| Cc1ccsc1C(=O)N1C[C@@H]2CCCN3CCC[C@@H]([C@H]23)[C@H]1CCCC(=O)NCC1CC1 | 612 s |
| CCOc1ccc(-c2csc(Cc3nc(-c4ccc(OCC)cc4)no3)n2)cc1 | 1300 s |
| COC(=O)c1ccc2c(=O)n(-c3cccc(C)c3)c(N3CCN(c4ccccn4)CC3)nc2c1 | 726 s |
| Cc1ccc2cc(CCC(=O)NCc3ccc(N4CCOCC4)cc3)c(=O)[nH]c2c1 | 655 s |
| Cc1cccc(OCc2nc(CCN(C)C(=O)NC3CCCC3)no2)c1 | 894 s |
| Cc1cc(-c2c(C)sc(C)c2S(=O)(=O)Nc2ccc(C)c(C)c2)n[nH]1 | 1090 s |

| Structure (SMILES) | RP-LC retention time |
| --- | --- |
| COc1ccc(-c2noc(CNC(=O)c3cc(C)nc4ccccc34)n2)cc1OC | 652 s |
| Cc1noc(C)c1S(=O)(=O)N1CCC(c2nc(CCOCc3ccccc3)no2)C1 (configuration not stated) | 984 s |
| CC(C)CCN1C[C@@H](CO)[C@H](c2nc(-c3cccnc3)no2)C1 | 583 s |
| O=C(NCCc1ccsc1)C(=O)Nc1ccccc1F | 878 s |
| Cc1[nH]c2ccccc2c1C(Nc1nc2ccccc2s1)c1ccccn1 (configuration not stated) | 703 s |
| CCNC(=O)Cc1nnc(-c2ccc(OC)cc2)o1 | 634 s |
| CCc1ccccc1NC(=O)N(C)CC1CCOC1 (configuration not stated) | 699 s |
| O=c1ccc(-c2ccncc2)nn1CCCNS(=O)(=O)c1cccs1 | 571 s |
| O=C(CSc1nnc2c3cc(-c4ccccc4)nn3ccn12)NCc1ccccc1Cl | 800 s |
| CCNc1nc(C)cc(N2CCN(C(=O)Nc3ccc(C)cc3C)CC2)n1 | 656 s |
| Cn1nc(C(=O)N2CCCC(C(=O)NC3CC3)C2)c2c1CCN(C(=O)COc1ccc(F)cc1)C2 (configuration not stated) | 674 s |
| CCOC(=O)c1ccc(NC(=O)c2csc(-c3cn(C)c4ncccc34)n2)cc1 | 826 s |
| CCCCN(C)C(=O)c1ccc(-c2nnc3ccc(NC(=O)CC)cn23)cc1 | 740 s |
| CC(C)CC(=O)Nc1cc2c(cc1S(=O)(=O)c1ccccc1)n(C)c(=O)n2C | 786 s |
| COC(=O)C1CCN(c2ccnc3c2c(=O)n(C)c(=O)n3C)CC1 | 660 s |
| CN(C)CCn1c2c(c(SCC(=O)Nc3ccc(Br)cc3)nc1=O)CCC2 | 655 s |
| Cc1ccc(-c2noc(CN3N=NC4C(=O)N(c5ccc(F)cc5)C(=O)C43)n2)cc1 (configuration not stated) | 1020 s |
| CC(C)n1c(CC2CCN(C(=O)Nc3ccccc3Cl)C2)nc2cccnc21 (configuration not stated) | 648 s |
| O=C(CN1CCN(Cc2ccccc2F)C1=O)NCc1ccc(F)cc1 | 808 s |
| Cc1ccc(Cl)cc1N1CCN(C(=O)c2csc(C(=O)NC3CC3)n2)CC1 | 972 s |
| CN(CCNC(=O)C1CCCN(c2nn3c(=O)c4c(nc3s2)CCCC4)C1)Cc1ccccc1 (configuration not stated) | 624 s |
| O=C(NC1CCCCCC1)c1nnc(-c2ccc(S(=O)(=O)N3CCOCC3)cc2)o1 | 917 s |

| Structure (SMILES) | RP-LC retention time |
| --- | --- |
| O=c1c2cc3c(cc2nc(SCc2nc(-c4ccccc4)no2)n1-c1ccc(F)cc1)OCO3 | 1140 s |
| CCN1C(=O)COc2ccc(-c3csc(NC(=O)c4ccc(C)cc4)n3)cc21 | 1040 s |
| O=C1CC(c2noc(-c3cc(F)ccc3F)n2)CN1c1ccc(Cl)cc1 (configuration not stated) | 1020 s |
| CCc1nc(OCC(=O)Nc2ccccc2C(F)(F)F)c2ccccc2n1 | 846 s |
| CN(CCc1ccccn1)C(=O)C1CCN(c2cn[nH]c(=O)c2)CC1 | 536 s |
| COc1ccc(N2CCN(c3ncc(S(=O)(=O)c4ccc(C(C)C)cc4)c(N)n3)CC2)cc1 | 1070 s |
| Cc1ccc(NC(=O)C2CCN(C(=O)c3ncn4c3COC(c3ccccc3)C4)CC2)cc1 (configuration not stated) | 626 s |
| COc1ccc(-c2csc(C)n2)cc1S(=O)(=O)N(C)c1cccc(C)c1 | 1050 s |
| CCC(C)NC(=O)C1CCN(C(=O)c2cc3ccsc3n2Cc2cccc(OC)c2)CC1 (configuration not stated) | 633 s |
| O=C(c1sc2ncccc2c1-n1cccc1)N1CCN(c2ccccc2Cl)CC1 | 1120 s |
| Cc1ccccc1-c1noc(CN2C(=O)COc3ccc(Cl)cc32)n1 | 1120 s |
| O=C(c1ccccc1Cl)N1CCN(c2cc(-c3ccc(Cl)cc3)[nH]n2)CC1 | 854 s |
| Cc1ccc(-n2nc(CO)c(C(=O)NC3CCCC3)n2)cc1 | 1030 s |
| O=C1CCN(C(=O)c2ccco2)CCCC(CO)CCN1 (configuration not stated) | 566 s |
| CC(Cc1ccco1)NC(=O)C1CCN(S(=O)(=O)c2ccc3c(c2)NC(=O)CO3)CC1 (configuration not stated) | 726 s |
| O=C(Nc1nnc(Cc2cccs2)o1)c1cc2cc([N+](=O)[O-])ccc2s1 | 858 s |
| CCc1ccc(-c2noc(CSc3nc4cc5c(cc4c(=O)n3Cc3ccncc3)OCO5)n2)cc1 | 909 s |
| CCn1c(=O)c(C)nc2cc(-c3noc(/C=C/c4ccc(OC)c(OC)c4)n3)ccc21 | 1010 s |
| COC(=O)c1ncn2c1C(=O)N(Cc1cccc(F)c1)C(C)(C(=O)NCc1ccc(C)cc1)C2 (configuration not stated) | 760 s |
| COc1ccc(NC(=O)c2nnc(CCCC(=O)NCCc3c[nH]c4ccc(Cl)cc34)s2)cc1 | 892 s |
| Cc1ccc(C(=O)NCCc2c[nH]c3ccc(Cl)cc23)cc1-n1nnc2cccnc21 | 903 s |
